In patent publication US20250382298A1, “NITROGEN-CONTAINING COMPOUND AND USE THEREOF” (SUZHOU GENHOUSE BIO CO., LTD., priority 2022, published 2025):
pEC50, pIC50: −log10 of the molar value. Where two headings read alike, the source gives them in different places.

Columns and labels:
OVCAR3 cells [1] = experiment: Detection of OVCAR3 cell proliferation activity by CTG method; format: cell-based; conditions: Homo sapiens, OVCAR-3, 168 h, CellTiter-Glo, 7 days
Text: (§1) This assay can be used to examine the potency of compounds in inhibiting the proliferation of tumor cells (OVCAR3, HT-29, BT-549, HCT-116). A lower IC50 value indicates high potency of the compound as a KIF18A inhibitor in the following assay setup,
1640 medium; fetal bovine serum; penicillin/streptomycin antibiotics purchased from Wisent; CellTiter-Glo (chemiluminescence detection reagent for cell viability) reagent purchased from Promega; OVCAR3 cell line purchased from Nanjing Cobioer Biosciences Co., Ltd.; Nivo multimode microplate reader (PerkinElmer),
OVCAR3 cells were seeded into a white 96-well plate, with 80 μL of cell suspension containing 2000 OVCAR3 cells added to each well. The cell plate was incubated in a CO2 incubator overnight.
A test compound was 5-fold diluted to the 8th concentration (i.e., from 2 mM to […]) using a multichannel pipette, with duplicate wells set up. To an intermediate plate was added 78 μL of medium, and the serially diluted compound was transferred to the corresponding wells of the intermediate plate at 2 μL/well. The mixture was mixed well and then transferred to the cell plate at 20 μL/well. The concentration of the compound transferred to the cell plate ranged from 10 μM to 0.026 nM. The cell plate was incubated in a CO2 incubator for 7 days. Another cell plate was prepared and read for signal values on the day of compound addition, and these values were used as the maximum values (the Max value in the equation below) in data analysis. To this cell plate was added the chemiluminescence detection reagent for cell viability at 25 μL/well, and the luminescence signals were stabilized by incubation at room temperature for 10 min. Readings were taken using the multimode microplate reader.
To the cell plate was added the chemiluminescence detection reagent for cell viability at 25 μL/well, and the luminescence signals were stabilized by incubation at room temperature for 10 mm. Readings were taken using the multimode microplate reader, […]

HT-29 cells [2] = experiment: Detection of cell proliferation activity by CCK8 method (HT-29); format: cell-based, human; conditions: CCK8, 96 h
Text: as §1
(§2) McCoy's 5A medium purchased from Sangon Biotech; CCK8 kit purchased from Beyotime; OVCAR3, HT-29, HCT-116, and BT-549 cells purchased from Shanghai Fuheng Biotechnology Co., Ltd.; multimode microplate reader (Thermo).
(§3) Cells at the logarithmic growth phase were taken, digested with a cell lysis buffer (trypsin), centrifuged, counted, and seeded into a 96-well plate at an appropriate cell density (BT549: 1500 cells/well in 1640 medium. HT-29 and HCT-116: 2000 cells/well in McCoy's 5A medium), with 180 μL per well, for a total of 60 wells. The surrounding wells were filled with an equal amount of PBS to prevent water evaporation from the edge wells. The next day after cell plating, the test compounds at different concentration gradients (with an initial final concentration of 10 μM, diluted in a 1:5 gradient to obtain 9 concentration gradients) were added to the wells. Three replicate wells were set up for each concentration point, and a corresponding DMSO negative control group was also set up. Detection: After 96 h of drug treatment, the test cell culture plate was removed from the incubator. All the liquid in the 96-well plate was aspirated, and 100 μL of medium containing 10% CCK8 solution was added to each well. The plate was then incubated at 37° C. for 2 h (the OD450 of the DMSO group reached 1.5 or more), and the absorbance at 450 nm was measured using a microplate reader
(§4) After the background value was subtracted from the measurement for each well, the inhibition rate was calculated. Inhibition Rate (%)=(1−Sample/Vehicle)×100. Sample is the luminescence value of the drug treatment group, and Vehicle is the luminescence value of the DMSO control group. A sigmoidal dose-survival rate curve was plotted using a non-linear regression model in the GraphPad Prism 7.0 software, and the IC50 values were calculated.

BT-549 cells = experiment: Detection of cell proliferation activity by CCK8 method (BT-549); format: cell-based; conditions: CCK8, 96 h
Text: as §1, §2, §3, §4

HCT-116 cells [3] = experiment: Detection of cell proliferation activity by CCK8 method (HCT-116); format: cell-based; conditions: CCK8, 96 h
Text: as §1, §2, §3, §4

KIF18A = KIF18A (Homo sapiens (Human), UniProt Q8NI77); experiment: KIF18A enzymatic activity inhibition, ADP-Glo kit; format: biochemical; conditions: 4 nM KIF18A, 30 μM ATP
Experimental: In this experiment, an ADP-Glo kit was used to detect the inhibitory activity of the compounds against KIF18A. Each compound was prepared into a 10 mM stock solution with DMSO, which was then diluted at 1:5 to obtain 9 gradients with the initial final concentration set at 10 μM. Meanwhile, a control group and a blank group were also set up. The reaction buffer consisted of 15 mM Tris (pH 7.5), 10 mM MgCl2, and 0.01% Pluronic F-68. 4 nM KIF18A (1467) and the test compound were added to a 384-well plate and incubated at 37° C. for 20 mm. Then, 30 μM ATP was added to initiate the enzymatic reaction, and the plate was incubated at room temperature for 15 min. Finally, the ADP-Glo reagent was added to detect the luminescence intensity, where the luminescence intensity is directly proportional to the ADP content. Inhibition rate (%)=[…]. Sample signal is the value of the compound group, and DMSO signal is the value of the DMSO control group. Then, the inhibition rate at each concentration was calculated, and the IC50 was determined by fitting using the GraphPadPrism 7.0 software.

HT-29 cells [4] = experiment: Mitotic index analysis, pH3 expression in HT-29 cells; format: cell-based, human; conditions: Homo sapiens, 24 h treatment
Experimental: (§5) HCT-116 and HT-29 cells at the logarithmic growth phase were taken, digested with a cell lysis buffer (trypsin), centrifuged, counted, and seeded into a 96-well plate at an appropriate cell density (20000 cells/well), with 100 μL per well. The surrounding wells were filled with an appropriate amount of PBS to prevent water evaporation. The next day, the cells were treated with the compounds at different concentrations (with a starting concentration of 10 μM, 3-fold diluted to obtain 9 concentration gradients). After 24 h, the medium was aspirated, and the cells were washed twice with 100 μL of PBS. The cells were then fixed with 4% paraformaldehyde and incubated at room temperature for 15 min. The fixative solution was discarded, and the cells were washed with PBS. Then, 150 μL of specialized blocking solution (containing 1% Triton-100) was added to each well for blocking at room temperature for 2 h, and the plate was washed with PBS to remove excess blocking solution. Anti-phistone H3 (pH3) was diluted at a ratio of 1:1000 with a blocking solution containing 0.033% Triton-100, and a blank control group was set up. Then, incubation was performed at 4° C. overnight. The next day, the plate was washed twice with 1×PBST. Anti-rabbit-IgG (H+L) (CST) and DRAQ5 (Thermofisher) were each diluted at an appropriate ratio with a blocking solution containing 0.033% Triton-100 (secondary antibody: 1:2000; DRAQ5: 1:10000). Then, incubation was performed at room temperature for 2 h. The plate was washed twice with 1×PBST and once with PBS. Fluorescence signals at 700 nm and 800 nm were detected using a Li—COR Odyssey two-color near-infrared laser imager. Calculation was performed as follows: pH3 expression (%)=(Cmpd dose/DMSO control)×100. Cmpd dose is the value of the drug treatment group, and DMSO control is the value of the DMSO control group. The EC50 values were determined by fitting using the GraphPad Prism 7.0 software.

HCT-116 cells [5] = experiment: Mitotic index analysis, pH3 expression in HCT-116 cells; format: cell-based; conditions: 24 h treatment
Experimental: as §5

OVCAR3 cells [6] = experiment: Detection of cell proliferation activity by CCK8 method (OVCAR3); format: cell-based
Text: as §1, §2, §3, §4

[7] = Pharmacokinetic test in mice; format: in vivo; conditions: BALB/c mice; for AUC / Cmax / half-life: mouse, plasma; for half-life: read-out: t½ (converted)
Experimental: In this example, the pharmacokinetic behavior of the compounds after intravenous injection (IV) and intragastric (PO) administration in BALB/c mice was tested.
On the day of administration, mice were weighed for actual body weight and the administration volume was calculated. Each compound was tested in two groups with 9 mice in each group; one group was subjected to administration by single intravenous injection, and the other group of mice was subjected to single intragastric administration. Whole blood samples were collected via the orbit at prescribed time points (0.25 h, 0.5 h, 1 h, 2 h, 4 h, 8 h, and 24 h after administration). After blood sample collection, the samples were immediately transferred to labeled commercial sample tubes containing K2-EDTA (0.85-1.15 mg), followed by centrifugation (3200×g, 4° C., 10 min) and plasma collection. The plasma was transferred to a pre-cooled centrifuge tube, frozen in dry ice, and then stored in an ultra-low temperature freezer at −60° C. or lower until the LC-MS/MS analysis.
Plasma concentrations were determined by the LC-MS/MS method. Plasma drug concentration data for the compounds were processed using a non-compartmental model in the WinNonlin Version 6.3 (Pharsight, Mountain View, CA) pharmacokinetic software. The relevant pharmacokinetic parameters were calculated by a linear-log trapezoidal method.

[8] = Homo sapiens, OVCAR-3, CCK8, 96 h

KIF18A, sequence (Q8NI77 1-467): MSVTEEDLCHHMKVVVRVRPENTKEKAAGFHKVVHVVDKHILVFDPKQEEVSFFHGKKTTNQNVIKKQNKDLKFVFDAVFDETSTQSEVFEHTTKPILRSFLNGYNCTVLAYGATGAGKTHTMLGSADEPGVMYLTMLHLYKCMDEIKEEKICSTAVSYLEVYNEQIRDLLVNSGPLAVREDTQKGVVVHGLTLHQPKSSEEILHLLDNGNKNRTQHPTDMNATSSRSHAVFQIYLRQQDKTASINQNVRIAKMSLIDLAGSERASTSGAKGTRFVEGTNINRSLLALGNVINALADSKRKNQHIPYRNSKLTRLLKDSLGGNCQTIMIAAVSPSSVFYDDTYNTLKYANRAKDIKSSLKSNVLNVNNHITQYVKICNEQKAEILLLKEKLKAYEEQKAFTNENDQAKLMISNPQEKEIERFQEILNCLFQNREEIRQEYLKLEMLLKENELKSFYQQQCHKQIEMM

| Compound | pIC50 (HT-29 cells [2]; Homo sapiens) | pIC50 (BT-549 cells; Homo sapiens) | pIC50 (HCT-116 cells [3]; Homo sapiens) | pIC50 (KIF18A) | pEC50 (HT-29 cells [4]) | pEC50 (HCT-116 cells [5]; Homo sapiens) | pIC50 (OVCAR3 cells [6]; [8]) | F ([7]; PO @30mpk) [%] | AUC ([7]; 30 mg/kg, PO @30mpk) [µM·h] | Cmax ([7]; 30 mg/kg, PO @30mpk) [µM] | half-life ([7]; 30 mg/kg, PO @30mpk) [h] | other results |
| --- | --- | --- | --- | --- | --- | --- | --- | --- | --- | --- | --- | --- |
| CC1(S(=O)(=O)Nc2ccc(C(=O)Nc3cn4ccnc4c(N4CCC(F)(F)CC4)n3)c(N3CCC4(CC3)CC4)c2)CC1 [Compound 13] | 6.88 | 6.96 | < 5.00 | 6.73 | 6.63 | < 5.00 | – | – | – | – | – | pIC50 (OVCAR3 cells [1]): 7.48 |
| Cn1ccc2cc(NC(=O)c3ccc(NS(=O)(=O)CCO)cc3N3CCC4(CC3)CC4)nc(N3CCC(F)(F)CC3)c21 [Compound 18] | 6.47 | 6.61 | < 5.00 | 7.03 | 7.06 | < 5.00 | – | – | – | – | – | pIC50 (OVCAR3 cells [1]): 7.03 |
| O=C(Nc1cn2ccnc2c(N2CCC(F)(F)CC2)n1)c1cnc(NS(=O)(=O)CCO)cc1N1CCC2(CC1)CC2 [Compound 38] | – | – | – | 8.12 | – | – | – | – | – | – | – | pIC50 (OVCAR3 cells [6]; CCK8, 96 h): 7.92; pIC50 (HT-29 cells [2]): 6.88; pIC50 (BT-549 cells): 7.50; pIC50 (HCT-116 cells [3]): < 5.00; pEC50 (HCT-116 cells [5]): < 5.00 |
| O=C(Nc1cc2ncccc2c(N2CCC(F)(F)CC2)n1)c1ccc(NS(=O)(=O)CCO)cc1N1CCC2(CC1)CC2 [Compound 40] | 6.75 | 6.66 | < 5.00 | 7.20 | – | < 5.00 | 7.17 | – | – | – | – | – |
| CS(=O)(=O)Nc1ccc(C(=O)Nc2cn3c(F)cnc3c(N3CCC(F)(F)CC3)n2)c(N2CC3CCC(C3)C2)c1 [Compound 52] | 7.12 | 6.68 | < 5.00 | 7.66 | 7.37 | < 5.00 | 7.28 | 107 | 269 | 14.1 | 39 | – |
| Cn1ncc2cc(NC(=O)c3ccc(NS(C)(=O)=O)cc3N3CC4CCC(C4)C3)nc(N3CCC(F)(F)CC3)c21 [Compound 56] | 7.60 | 6.92 | < 5.00 | 7.39 | 7.87 | < 5.00 | 7.79 | 142 | 436 | 23.6 | 80.8 | – |
| CS(=O)(=O)Nc1ccc(C(=O)Nc2cn3ncnc3c(N3CCC(F)(F)CC3)n2)c(N2CCC3(CC2)CC3)c1 [Compound 57] | 7.47 | 7.50 | < 5.00 | 7.55 | 7.57 | < 5.00 | 7.84 | 44 | 154 | 6.98 | 146 | – |
| CS(=O)(=O)Nc1ccc(C(=O)Nc2cn3cnnc3c(N3CCC(F)(F)CC3)n2)c(N2CC3CCC(C3)C2)c1 [Compound 65] | 7.39 | 7.27 | < 5.00 | 7.72 | 7.70 | < 5.00 | 7.84 | – | – | – | – | F ([7]; PO @5mpk): 82%; AUC ([7]; 5 mg/kg, PO @5mpk): 19.9 µM·h; Cmax ([7]; 5 mg/kg, PO @5mpk): 3.56 µM; half-life ([7]; 5 mg/kg, PO @5mpk): 3.9 h |
| CS(=O)(=O)Nc1ccc(C(=O)Nc2cc3cn[nH]c3c(N3CCC(F)(F)CC3)n2)c(N2CC3CCC(C3)C2)c1 [Compound 69] | 7.94 | 7.40 | < 5.00 | 7.59 | 8.32 | < 5.00 | 8.19 | 385 | 221 | 20.5 | 8.2 | – |
| CS(=O)(=O)Nc1ccc(C(=O)Nc2cc3nccnc3c(N3CCC(F)(F)CC3)n2)c(N2CCC3(CC2)CC3)c1 [Compound 70] | 7.16 | 7.04 | < 5.00 | 7.02 | 7.47 | < 5.00 | 7.50 | – | – | – | – | – |
| O=C(Nc1cc2nccnc2c(N2CCC(F)(F)CC2)n1)c1ccc(NS(=O)(=O)CCO)cc1N1CC2CCC(C2)C1 [Compound 73] | 7.38 | 7.11 | < 5.00 | 7.42 | 7.61 | < 5.00 | 7.69 | 72 | 69.1 | 4.66 | 3.8 | – |
